Results taken from US20260327211A1, “MODULATORS OF A POTASSIUM CHANNEL AND OF TRPV1 CHANNEL AND USES THEREOF” (Bsense Bio Therapeutics Ltd., priority 2023, published 2026).
Values after ≈ are worked out from the molar mass of the structure shown. Like-named read-outs stand apart in the source and are kept apart here.

What was measured:
hKv7.2/3 = target: T1, hKv7.2/3 (Homo sapiens, UniProt O43525+O43526); test: Kv7.2/7.3 HCS, FLIPR potassium (thallium) assay, CHO/hKv7.2/3; assay type: cell-based; conditions: for EC50: Table 1, read-out: Kv7.2/7.3 IC50
T1 construct: host or cells: CHO
T1 sequence (O43525 whole entry): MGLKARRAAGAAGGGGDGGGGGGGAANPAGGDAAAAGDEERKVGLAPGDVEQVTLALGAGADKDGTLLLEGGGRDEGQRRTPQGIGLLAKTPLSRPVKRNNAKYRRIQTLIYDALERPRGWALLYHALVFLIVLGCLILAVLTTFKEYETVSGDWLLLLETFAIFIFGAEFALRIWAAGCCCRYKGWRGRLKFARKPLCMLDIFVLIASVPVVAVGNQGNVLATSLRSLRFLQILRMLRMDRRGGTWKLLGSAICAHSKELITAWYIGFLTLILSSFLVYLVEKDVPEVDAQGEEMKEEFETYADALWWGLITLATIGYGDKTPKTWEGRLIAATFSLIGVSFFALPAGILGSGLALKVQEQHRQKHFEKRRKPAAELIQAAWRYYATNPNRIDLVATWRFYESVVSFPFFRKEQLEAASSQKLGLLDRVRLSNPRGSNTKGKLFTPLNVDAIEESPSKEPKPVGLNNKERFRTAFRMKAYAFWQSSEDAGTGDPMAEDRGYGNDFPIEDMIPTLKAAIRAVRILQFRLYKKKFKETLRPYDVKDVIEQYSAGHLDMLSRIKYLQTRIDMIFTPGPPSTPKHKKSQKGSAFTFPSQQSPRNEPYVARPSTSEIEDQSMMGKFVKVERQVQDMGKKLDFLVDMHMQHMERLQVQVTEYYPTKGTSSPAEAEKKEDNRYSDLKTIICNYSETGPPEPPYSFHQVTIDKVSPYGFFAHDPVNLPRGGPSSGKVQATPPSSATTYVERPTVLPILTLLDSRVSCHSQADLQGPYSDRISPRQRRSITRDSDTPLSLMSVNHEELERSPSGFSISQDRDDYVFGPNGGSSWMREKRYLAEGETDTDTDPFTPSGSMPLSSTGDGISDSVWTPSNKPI
T1 sequence (O43526 whole entry): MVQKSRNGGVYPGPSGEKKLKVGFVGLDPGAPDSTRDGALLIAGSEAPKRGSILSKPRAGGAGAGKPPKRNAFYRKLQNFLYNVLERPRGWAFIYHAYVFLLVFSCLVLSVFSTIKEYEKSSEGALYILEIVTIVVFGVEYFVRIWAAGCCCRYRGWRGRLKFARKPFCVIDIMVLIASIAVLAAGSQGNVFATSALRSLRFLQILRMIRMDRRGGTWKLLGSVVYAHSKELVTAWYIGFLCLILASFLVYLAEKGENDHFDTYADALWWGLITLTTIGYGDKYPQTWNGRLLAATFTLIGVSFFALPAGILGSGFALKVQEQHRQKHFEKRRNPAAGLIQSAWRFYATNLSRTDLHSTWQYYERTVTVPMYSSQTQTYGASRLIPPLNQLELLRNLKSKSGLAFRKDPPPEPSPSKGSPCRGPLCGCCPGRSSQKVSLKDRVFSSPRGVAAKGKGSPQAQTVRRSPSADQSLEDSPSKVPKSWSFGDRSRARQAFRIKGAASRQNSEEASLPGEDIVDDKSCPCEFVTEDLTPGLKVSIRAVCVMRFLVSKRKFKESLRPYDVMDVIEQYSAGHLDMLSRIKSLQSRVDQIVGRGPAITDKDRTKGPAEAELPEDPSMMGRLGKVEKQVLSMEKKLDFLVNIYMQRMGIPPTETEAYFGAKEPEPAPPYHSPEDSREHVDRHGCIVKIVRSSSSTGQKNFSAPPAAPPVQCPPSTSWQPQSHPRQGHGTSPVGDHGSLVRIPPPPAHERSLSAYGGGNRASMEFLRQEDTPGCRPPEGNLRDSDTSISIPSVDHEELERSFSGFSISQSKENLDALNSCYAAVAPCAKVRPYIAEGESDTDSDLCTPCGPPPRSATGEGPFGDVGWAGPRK
Method: (§1) Cell culture: Chinese hamster ovary (CHO) cell-line cells with a constitutive expression of human Kv7.2/3 channels (B'SYS GmbH, Switzerland) were cultured in F-12 nutrient mixture (Biological Industries) supplemented with 10% fetal bovine serum (Biological Industries) and 1% penicillin-streptomycin (Biological Industries) in a humidified 5% CO2 incubator at 37° C. To maintain the stability of human Kv7.2/7.3 expression antibiotic selection was added (Puromycin 5 μg/ml).
High content screen (HCS) using FLIPR Potassium Assay Kit: A FLIPR Potassium Assay Kit (R8222 FLIPR Potassium Assay Explorer Kits, Molecular Devices) was used with the CHO/hKv7.2/3 cell line to screen molecules against the hKv7.2/7.3 ion channel target. The assay exploits the permeability of thallium ions (Tl+) through potassium (K+) channels. In this assay, Tl+ indicator dye is used to produce a bright fluorescent signal upon the binding to Tl+ conducted through the potassium channels. The intensity of the Tl+ signal is proportional to the number of potassium channels in the open state. Therefore, it provides a functional indication of the potassium channel activity. To activate the voltage-gate potassium channels, the cells were stimulated with a mixture of K+ and Tl+ to depolarize the cell membrane. The fluorescence increase in the assay represents the influx of Tl+ into the cell specifically through the potassium channel, providing a functional read-out of hKv7.2/3 activity using a fluorescent plate reader coupled with injectors used to activate the channels.
According to optimization process to achieve uniform and consistent screening conditions the following protocol was established: Cells were seeded in 384-well, black-walled, clear-bottomed Greiner #781091, at a density of 5000 cells per well 24 hours before the assay conductance and incubated overnight in their normal growth medium. On the experiment day the medium was replaced with HBSS, HEPES, and the test compound/vehicle (0.2% DMSO). Dye solution (prepared according to the manufacturer) was added to the plates, which were incubated for 1.5 h light-protected in room temperature. Tecan Spark reader plate injectors were primed with Tl+(1 mM Tl2SO4) or Tl++K+(1 mM Tl2SO4; 5 mM K2SO4) for channel activation and data correction. […] To calculate EC50 values, the data was fitted to sigmoidal regression using Prism GraphPad. The fitting was constrained to a minimum of 1 and a maximal response of about 3.6 unless a different maximal response could be clearly identified.

hTRPV1 = target: T2, hTRPV1 (Homo sapiens, UniProt Q8NER1); test: TRPV1 HCS, Fluo-8 calcium flux, capsaicin activation, CHO cells expressing hTRPV1; assay type: cell-based
T2 construct: CDS of NM_080704.4, inserted into the multiple cloning site of pcDNA3.1(+); host or cells: CHO/hKv7.2/3
T2 sequence (Q8NER1 whole entry): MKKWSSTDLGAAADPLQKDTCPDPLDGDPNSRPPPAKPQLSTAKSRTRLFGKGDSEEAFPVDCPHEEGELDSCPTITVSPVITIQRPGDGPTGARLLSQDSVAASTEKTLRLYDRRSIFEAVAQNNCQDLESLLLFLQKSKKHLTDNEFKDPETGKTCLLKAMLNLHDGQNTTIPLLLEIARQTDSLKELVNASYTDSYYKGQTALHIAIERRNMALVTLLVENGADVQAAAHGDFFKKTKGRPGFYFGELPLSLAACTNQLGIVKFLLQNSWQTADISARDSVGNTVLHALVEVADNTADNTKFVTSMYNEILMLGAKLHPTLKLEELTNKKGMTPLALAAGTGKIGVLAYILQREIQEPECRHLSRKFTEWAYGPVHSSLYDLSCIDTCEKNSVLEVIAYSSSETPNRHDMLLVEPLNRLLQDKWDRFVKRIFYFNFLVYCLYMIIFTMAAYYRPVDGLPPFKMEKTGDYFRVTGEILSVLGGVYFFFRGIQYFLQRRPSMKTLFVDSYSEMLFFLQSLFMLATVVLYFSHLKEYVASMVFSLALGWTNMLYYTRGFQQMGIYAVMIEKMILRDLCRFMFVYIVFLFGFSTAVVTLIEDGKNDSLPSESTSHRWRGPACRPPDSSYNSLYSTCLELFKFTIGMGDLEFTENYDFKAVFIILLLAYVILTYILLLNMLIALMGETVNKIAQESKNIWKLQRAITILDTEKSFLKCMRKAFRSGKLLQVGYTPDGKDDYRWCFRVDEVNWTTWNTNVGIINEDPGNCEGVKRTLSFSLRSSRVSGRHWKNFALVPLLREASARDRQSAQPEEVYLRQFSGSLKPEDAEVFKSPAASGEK
Method: as §1, with “with” for “with a”, “hTRPV1” for “Kv7.2/3”, “stable expression” for “stability”, “hTRPV1,” for “human Kv7.2/7.3 expression”, “selection (G418 500 μg/ml)” for “selection”, “applied.” for “added (Puromycin 5 μg/ml).”
High content screen (HCS) using Fluo-8 No Wash Calcium flux Assay Kit: Fluo-8 No Wash Calcium Assay Kit (Abcam, ab112129) was used with CHO stably or transiently expressing TRPV1 to screen compounds against the hTRPV1 ion channel target. The cells were pre-loaded with Fluo-8AM which is membrane permeable. The AM groups of the Fluo-8AM were then being cleaved by intracellular esterase, trapping the Fluo8 in the cell. […] The relative fluorescence signal was calculated following background subtraction, comparing the fluorescence at each time point to its maximal level measured following Ionomycin application in the end.
According to optimization process to achieve uniform and consistent screening condition of molecules the following protocol was established: Cells were seeded in 384-well, black-walled, clear-bottomed, at a density of 5,000 cells per well 24 h before the assay conductance and incubated overnight in their normal growth medium. On the experiment day the medium was replaced in each well with HBSS, HEPES, and compound/vehicle (0.2% DMSO). Dye solution (prepared according to the manufacturer) was added to the wells and plates are incubated for 1.5 h light-protected in room temperature. The Tecan Spark plate reader injectors were then primed with capsaicin and Ionomycin for channel activation and data normalization, respectively. […] To calculate IC50 values, the data was fitted to sigmoidal regression line using Prism GraphPad. The fitting was constrained to a minimum of 0 and a maximal response of about 1 unless a different maximal response could be identified.

[1] = Human liver microsome metabolic stability; assay type: in vitro ADME; conditions: human liver microsomes; for microsomal CLint at 1 µM: read-out: HLM Clint; for HLM Clint: 1 µM
Excerpt: Liver microsomes which are subcellular particles derived from endoplasmic reticulum of hepatic cells were used for evaluating the tested compounds. These particles are rich in drug metabolizing enzymes, including the cytochrome p-450 family. Liver microsomes are a recommended test system for various in vitro drug metabolism and pharmacokinetics (DMPK) studies. CLint values lower than […] are considered suitable for drug development.
Liver Microsome Metabolic Stability Assay (NADPH): The liver microsome stability assay was evaluated through pre-incubation with HLMs. A liver microsome mixture (pooled from multiple donors) at a concentration of 0.5 mg/mL, and the test compound at a concentration of 1 μM, were warmed in the presence of a NADPH regenerating system (about 1.0 mM) at 37° C. Positive controls, including testosterone (a CYP3A4 substrate), propafenone (a CYP2D6 substrate), and diclofenac (a CYP2C9) substrate, were concurrently incubated with the HLMs, in the presence of the NADPH regenerating system (1.0 mM). Samples were extracted during incubation at multiple intervals: 0, 5, 15, 30, 45 and 60 minutes. To terminate the reactions, the samples were promptly mixed with cooled acetonitrile that included an internal standard (IS). An additional compound was incubated with the HLMs in the absence of the NADPH regeneration system, from which a sample was taken at the 60-minute interval.
The clearance of the test compound in the samples was subsequently analyzed by LC-MS/MS based on the peak area ratios of the analyte to the IS.
The following equation was used to calculate the microsome clearance: […]
Liver weight: 40 grams/kg, 30 grams/kg, 32 grams/kg, 20 grams/kg and 88 grams/kg, for rat, monkey, dog, human and mouse, respectively.

hERG = hERG (Homo sapiens, UniProt Q12809); test: hERG HCS, FLIPR potassium assay, CHO/hERG; assay type: cell-based; set-up: host or cells: CHO; conditions: Table 1; for IC50: read-out: hERG IC50; for hERG IC50 (inhibition in parentheses): at highest concentration shown
hERG, sequence (Q12809 whole entry): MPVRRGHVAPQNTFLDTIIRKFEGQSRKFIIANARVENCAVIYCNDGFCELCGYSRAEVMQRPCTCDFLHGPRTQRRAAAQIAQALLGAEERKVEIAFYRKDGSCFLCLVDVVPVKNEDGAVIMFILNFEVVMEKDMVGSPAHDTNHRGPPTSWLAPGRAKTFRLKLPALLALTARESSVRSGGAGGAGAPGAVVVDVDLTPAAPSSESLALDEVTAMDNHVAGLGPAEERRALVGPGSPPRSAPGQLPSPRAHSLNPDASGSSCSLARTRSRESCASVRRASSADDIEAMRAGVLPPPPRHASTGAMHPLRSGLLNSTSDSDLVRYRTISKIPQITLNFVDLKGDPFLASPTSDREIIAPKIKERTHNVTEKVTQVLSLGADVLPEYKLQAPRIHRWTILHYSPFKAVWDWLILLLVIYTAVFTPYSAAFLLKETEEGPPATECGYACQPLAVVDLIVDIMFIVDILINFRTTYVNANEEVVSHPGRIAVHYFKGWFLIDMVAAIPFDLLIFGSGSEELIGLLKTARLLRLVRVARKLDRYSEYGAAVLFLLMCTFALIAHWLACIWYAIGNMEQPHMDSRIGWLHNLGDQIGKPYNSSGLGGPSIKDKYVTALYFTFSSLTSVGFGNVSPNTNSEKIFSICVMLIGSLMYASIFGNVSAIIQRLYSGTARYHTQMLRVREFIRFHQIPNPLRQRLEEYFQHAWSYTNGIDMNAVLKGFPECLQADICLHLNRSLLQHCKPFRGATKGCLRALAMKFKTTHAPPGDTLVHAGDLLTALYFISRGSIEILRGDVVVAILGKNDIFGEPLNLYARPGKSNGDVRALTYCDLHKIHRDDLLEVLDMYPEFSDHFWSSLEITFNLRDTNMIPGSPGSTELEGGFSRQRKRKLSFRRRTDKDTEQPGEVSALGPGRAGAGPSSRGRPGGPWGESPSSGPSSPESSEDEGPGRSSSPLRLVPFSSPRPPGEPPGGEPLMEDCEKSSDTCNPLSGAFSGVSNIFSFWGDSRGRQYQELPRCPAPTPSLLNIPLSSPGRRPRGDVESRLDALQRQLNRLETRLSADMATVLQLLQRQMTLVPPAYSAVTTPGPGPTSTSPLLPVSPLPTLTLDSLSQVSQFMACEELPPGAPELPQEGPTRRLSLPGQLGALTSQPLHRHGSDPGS
Method: as §1, with “hERG” for “Kv7.2/3”, “the hERG expression” for “the”, “the CHO cell line, antibiotics” for “human Kv7.2/7.3 expression antibiotic”, “selection (G418 […] and Hygromycin 500)” for “selection”, “applied.” for “added (Puromycin 5 μg/ml).”
FLIPR Potassium Assay Kit: The FLIPR Potassium Assay Kit (R8222 FLIPR Potassium Assay Explorer Kits, Molecular Devices) was used with CHO/hERG cell line, for screening compounds against the hERG ion-channel off-target, as detailed hereinabove.
According to optimization process, to achieve a uniform and consistent screening condition of molecules, the following protocol was established: Cells were seeded in 384-well, black-walled, clear-bottomed, at a density of 7,500 cells per well 24 hours before the assay conductance and incubated overnight in their normal growth medium. On the experiment day the medium was replaced with HBSS, HEPES, and the tested compound/vehicle (0.2% DMSO). Dye solution (prepared according to the manufacturer) was added to the wells and plates were incubated for 1.5 hour light-protected in room temperature. The Tecan Spark plate-reader injectors were primed with Tl+(1 mM Tl2SO4) or Tl++K+(1 mM Tl2SO4; 10 mM K2SO4) for channel activation and data correction. […]. To calculate IC50 values, the data was fitted to sigmoidal regression using Prism GraphPad.

Kinetic solubility = assay type: physicochemical; conditions: Table 1; for solubility kinetic: hhbs buffer, aqueous buffer, read-out: Kinetic Sol.
Method: Solubility measurements were performed prior to each in vitro assay to ensure accurate dose response and reproducibility. Briefly, each compound was dissolved to 60 mM in DMSO and calibration curve was performed from 1.5-200 μM using absorbance spectra analysis and determination of λmax. Calibration curve served as the readout for all following assays. The 60 mM stock solution was used to make a 120 μM target concentration of 0.2% DMSO in the appropriate buffer of the in vitro related assay (i.e. HHBS buffer). Solubilized compounds were vortex for 10 minutes followed by centrifugation for 15 minutes in 5000 RPM and the supernatant was recovered for absorbance spectra analysis between 200-400 nm.

[2] = Log D, 1-octanol/buffer shake flask; assay type: physicochemical; conditions: pH 7.4
Method: The Log D assay was a miniaturized 1-octanol/buffer shake flask method followed by LC/MS/MS analysis, as follows.
The test compounds or control compounds Nadolol, Chlorpromazine Hydrochloride and Propranolol Hydrochloride were dissolved in 100% DMSO to obtain 10 mM solutions, which were transferred to 96-well polypropylene cluster tubes; 2 μL/well. 1-octanol saturated with 0.1 M phosphate buffer (149 μL/well) and 0.1 M phosphate buffer saturated with 1-octanol (149 μL/well) were added to the tubes, respectively, and each tube was vigorously mixed for 2 minutes and then shaked at a speed of 800 rpm at room temperature for 1 hour, followed by centrifugation at 4000 rpm for 5 minutes at room temperature. Thereafter, for the test compounds and the Chlorpromazine Hydrochloride and Propranolol Hydrochloride, the sample of the buffer layer was diluted by a factor of 50-fold and the sample of 1-octanol layer was diluted by a factor of 2000-fold with internal standard (IS) solution. For Nadolol, the sample of the buffer layer was diluted by a factor of 1000-fold and the sample of 1-octanol layer was diluted by a factor of 400-fold with internal standard (IS) solution. The samples were analyzed using a triple quadrupole mass spectrometer. Peak areas were corrected by dilution factors and embedded internal standard, and the ratio of the corrected peak areas was used to calculate the Log D value. The Log D value for each compound will be calculated by the following equation: […]

[3] = cells expressing TRPV1, read-out: TRPV1 IC50
[4] = 1-octanol/phosphate buffer, read-out: LogD

Row | Structure (SMILES) | microsomal CLint at 1 µM [1] | EC50 (hKv7.2/3) | IC50 (hTRPV1; [3]) | solubility kinetic (Kinetic solubility) | logD [2, 4] | other results
1 | CC(C)c1cc(Cl)cc(Cl)c1C(O)c1ccc(F)c(CC(=O)NCC2(O)CCC2)c1 (single isomer, unassigned) [Compound 533p1] |  |  |  |  |  | Kv7.2/3 activation (words) (hKv7.2/3): lower; Kv7.2/3 activation (words) (hKv7.2/3; listed as 533P1): primarily activation of Kv7.2/3; TRPV1 modulation (words) (hTRPV1): inhibits hTRPV1; TRPV1 modulation (words) (hTRPV1; listed as 533P1): TRPV1 inhibition
2 | CC(C)c1cc(Cl)cc(Cl)c1C(O)c1ccc(F)c(CC(=O)NCC(C)(C)O)c1 (centres unmarked) [Compound 417] | 89.1 µL/min/mg | 5.6 µM | 26600 nM |  |  | IC50 (hERG): > 2500 nM; hERG IC50 (inhibition in parentheses) (hERG): 0%
3 | CC(C)c1cc(Cl)cc(Cl)c1Sc1ccc(F)c(CC(=O)N[C@H]2C[C@H](O)C2)c1 [Compound 480] |  |  |  |  |  | IC50 (hTRPV1): 1400 nM
4 | Cc1cn(-c2ccc(F)c(CC(=O)NCCO)c2)c2c(Cl)cc(Cl)cc12 [Compound 552] |  | 12 µM | 1000 nM |  |  | HLM Clint [1]: 27.2 µL/min/mg; Kinetic Sol. (Kinetic solubility): 5; logD [2]: 4.77
5 | CC(C)c1cc(Cl)cc(Cl)c1C(=O)c1ccc(F)c(CC(=O)NCC2(O)CC2)c1 [Compound 573] | 441 µL/min/mg | 7 µM | 3000 nM | 24 µM (≈ 10.5 µg/mL) | 4.34 | 
6 | O=C(Cc1cncc(-n2cc(Cl)c3cc(Cl)cc(Cl)c32)c1)NCCO [Compound 649] | 27.3 µL/min/mg | 5.2 µM | 3300 nM | 10 µM (≈ 3.99 µg/mL) | 4.19 | 
7 | O=C(Cc1cncc(-n2cc(Cl)c3cc(Cl)cc(Cl)c32)c1)N[C@H]1COC[C@@H]1O [Compound 663] | 53.6 µL/min/mg | 5.9 µM |  | 26 µM (≈ 11.5 µg/mL) | 3.52 | 

Further lines, with some results ahead:

Row | microsomal CLint at 1 µM [1] | EC50 (hKv7.2/3) | IC50 (hTRPV1; [3]) | solubility kinetic (Kinetic solubility) | logD [2, 4] | Structure (SMILES) | other results
8 | 686 µL/min/mg | 1.8 µM | 1100 nM |  |  | COC[C@@H](CO)NC(=O)Cc1cc(Sc2c(Cl)cc(Cl)cc2C(C)C)ccc1F [Compound 414] | IC50 (hTRPV1; Table 2, read-out: Experimental IC50): 1100 nM; IC50 (hERG): > 2500 nM; hERG IC50 (inhibition in parentheses) (hERG): 0%
9 |  | 4.7 µM | 3200 nM |  |  | Cc1cn(-c2ccc(F)c(CC(=O)NCCOCCOCC(C)(C)O)c2)c2c(Cl)cc(Cl)cc12 [Compound 541] | HLM Clint [1]: 772.2 µL/min/mg; Kinetic Sol. (Kinetic solubility): 2; logD [2]: 4.78
10 | 120 µL/min/mg | 3 µM | 10000 nM | 27 µM (≈ 12.2 µg/mL) | 4.47 | CC(C)c1cc(Cl)cc(Cl)c1C(=O)c1ccc(F)c(CC(=O)NCC2(O)CCC2)c1 [Compound 569] | 
11 | 38.1 µL/min/mg | 8 µM |  | 6 µM (≈ 2.64 µg/mL) | 3.49 | O=C(Cc1cncc(-n2cc(Cl)c3cc(Cl)cc(Cl)c32)c1)N[C@@H]1COC[C@@H]1O [Compound 662] | TRPV1 IC50 (hTRPV1; cells expressing TRPV1): agonist
